Measured values taken from PubChem BioAssay (NCI).
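Exposure lasted 48 hours, with cells grown in 96-well plates and compounds tested at five concentrations. TGI is the concentration that stops growth completely.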

Tests used:
Assay in all cases: NCI anticancer screen, dose series, 48 h
U251 CNS = system: U251 CNS
HCT-15 colon = system: HCT-15 colon
TK-10 renal = system: TK-10 renal
SK-MEL-28 melanoma = system: SK-MEL-28 melanoma
SK-MEL-2 melanoma = system: SK-MEL-2 melanoma
LOX IMVI melanoma = system: LOX IMVI melanoma
HOP-18 NSCLC = system: HOP-18 NSCLC
NCI-H23 lung = system: NCI-H23 lung
SNB-78 CNS = system: SNB-78 CNS
ACHN renal = system: ACHN renal
OVCAR-5 ovarian = system: OVCAR-5 ovarian
A549 NSCLC = system: A549 NSCLC
EKVX NSCLC = system: EKVX NSCLC
OVCAR-3 ovarian = system: OVCAR-3 ovarian
RPMI-8226 leukemia = system: RPMI-8226 leukemia
LXFL 529 NSCLC = system: LXFL 529 NSCLC
KM12 colon = system: KM12 colon
M14 melanoma = system: M14 melanoma
RXF 393 renal = system: RXF 393 renal
HCC-2998 colon = system: HCC-2998 colon
HOP-62 NSCLC = system: HOP-62 NSCLC
SK-MEL-5 melanoma = system: SK-MEL-5 melanoma
COLO 205 colon = system: COLO 205 colon
IGROV1 ovarian = system: IGROV1 ovarian
HCT-116 colon = system: HCT-116 colon
SF-539 CNS = system: SF-539 CNS
HT29 colon = system: HT29 colon
KM20L2 colon = system: KM20L2 colon
NCI-H460 lung = system: NCI-H460 lung
UACC-62 melanoma = system: UACC-62 melanoma
DMS 114 small cell lung = system: DMS 114 small cell lung
SF-268 CNS = system: SF-268 CNS
OVCAR-8 ovarian = system: OVCAR-8 ovarian
SW-620 colon = system: SW-620 colon
M19-MEL melanoma = system: M19-MEL melanoma
UO-31 renal = system: UO-31 renal
UACC-257 melanoma = system: UACC-257 melanoma
SN12C renal = system: SN12C renal
SNB-75 CNS = system: SNB-75 CNS
DMS 273 small cell lung = system: DMS 273 small cell lung
SNB-19 CNS = system: SNB-19 CNS
SR leukemia = system: SR leukemia
HOP-92 NSCLC = system: HOP-92 NSCLC
OVCAR-4 ovarian = system: OVCAR-4 ovarian
MOLT-4 leukemia = system: MOLT-4 leukemia
786-0 renal = system: 786-0 renal
SF-295 CNS = system: SF-295 CNS
K-562 leukemia = system: K-562 leukemia
MALME-3M melanoma = system: MALME-3M melanoma
A498 renal = system: A498 renal
DLD-1 colon = system: DLD-1 colon
SK-OV-3 ovarian = system: SK-OV-3 ovarian
NCI-H226 lung = system: NCI-H226 lung
CAKI-1 renal = system: CAKI-1 renal
NCI-H522 lung = system: NCI-H522 lung
CCRF-CEM leukemia = system: CCRF-CEM leukemia
HL-60(TB) leukemia = system: HL-60(TB) leukemia

COc1ccc(-c2nnc(-c3nsc4ccccc34)o2)cc1 showed a TGI (U251 CNS) greater than 100 µM, a TGI (HCT-15 colon) greater than 100 µM and a TGI (TK-10 renal) greater than 100 µM. For the same compound, the TGI (SK-MEL-28 melanoma) was greater than 100 µM, the TGI (SK-MEL-2 melanoma) was greater than 100 µM and the TGI (LOX IMVI melanoma) was greater than 100 µM. For the same compound, the TGI (HOP-18 NSCLC) was greater than 100 µM, the TGI (NCI-H23 lung) was greater than 100 µM and the TGI (SNB-78 CNS) was greater than 100 µM. It also gave a TGI (ACHN renal) greater than 100 µM, a TGI (OVCAR-5 ovarian) greater than 100 µM and a TGI (A549 NSCLC) greater than 100 µM. It also gave a TGI (EKVX NSCLC) greater than 100 µM, a TGI (OVCAR-3 ovarian) of 92.6 µM and a TGI (RPMI-8226 leukemia) of 71.4 µM. It also gave a TGI (LXFL 529 NSCLC) greater than 100 µM, a TGI (KM12 colon) greater than 100 µM and a TGI (M14 melanoma) greater than 100 µM. For the same compound, the TGI (RXF 393 renal) was 93.9 µM, the TGI (HCC-2998 colon) was greater than 100 µM and the TGI (HOP-62 NSCLC) was greater than 100 µM. For the same compound, the TGI (SK-MEL-5 melanoma) was greater than 100 µM, the TGI (COLO 205 colon) was greater than 100 µM and the TGI (IGROV1 ovarian) was greater than 100 µM. It also gave a TGI (HCT-116 colon) greater than 100 µM, a TGI (SF-539 CNS) greater than 100 µM and a TGI (HT29 colon) greater than 100 µM. It also gave a TGI (KM20L2 colon) greater than 100 µM, a TGI (NCI-H460 lung) greater than 100 µM and a TGI (UACC-62 melanoma) greater than 100 µM. The TGI (DMS 114 small cell lung) was greater than 100 µM, the TGI (SF-268 CNS) was greater than 100 µM and the TGI (OVCAR-8 ovarian) was greater than 100 µM. It also gave a TGI (SW-620 colon) greater than 100 µM, a TGI (M19-MEL melanoma) greater than 100 µM and a TGI (UO-31 renal) greater than 100 µM. For the same compound, the TGI (UACC-257 melanoma) was greater than 100 µM, the TGI (SN12C renal) was greater than 100 µM and the TGI (SNB-75 CNS) was 83.4 µM. It also gave a TGI (DMS 273 small cell lung) greater than 100 µM, a TGI (SNB-19 CNS) greater than 100 µM and a TGI (SR leukemia) greater than 100 µM. The TGI (HOP-92 NSCLC) was greater than 100 µM and the TGI (OVCAR-4 ovarian) was greater than 100 µM.

With COc1cccc2c1C(=O)C1(O)CCCCC21 (configuration not stated) the TGI (U251 CNS) was greater than 100 µM, the TGI (HCT-15 colon) was greater than 100 µM and the TGI (MOLT-4 leukemia) was greater than 100 µM. For the same compound, the TGI (TK-10 renal) was greater than 100 µM, the TGI (SK-MEL-28 melanoma) was greater than 100 µM and the TGI (SK-MEL-2 melanoma) was greater than 100 µM. It also gave a TGI (LOX IMVI melanoma) greater than 100 µM, a TGI (786-0 renal) greater than 100 µM and a TGI (HOP-18 NSCLC) greater than 100 µM. The TGI (NCI-H23 lung) was greater than 100 µM, the TGI (SNB-78 CNS) was greater than 100 µM and the TGI (ACHN renal) was greater than 100 µM. It also gave a TGI (OVCAR-5 ovarian) greater than 100 µM, a TGI (A549 NSCLC) greater than 100 µM and a TGI (OVCAR-3 ovarian) greater than 100 µM. The TGI (SF-295 CNS) was greater than 100 µM, the TGI (RPMI-8226 leukemia) was greater than 100 µM and the TGI (LXFL 529 NSCLC) was greater than 100 µM. It also gave a TGI (KM12 colon) greater than 100 µM, a TGI (M14 melanoma) greater than 100 µM and a TGI (K-562 leukemia) greater than 100 µM. The TGI (RXF 393 renal) was greater than 100 µM, the TGI (MALME-3M melanoma) was greater than 100 µM and the TGI (HCC-2998 colon) was greater than 100 µM. It also gave a TGI (A498 renal) greater than 100 µM, a TGI (HOP-62 NSCLC) greater than 100 µM and a TGI (SK-MEL-5 melanoma) greater than 100 µM. For the same compound, the TGI (COLO 205 colon) was greater than 100 µM, the TGI (IGROV1 ovarian) was greater than 100 µM and the TGI (HCT-116 colon) was greater than 100 µM. It also gave a TGI (SF-539 CNS) greater than 100 µM, a TGI (HT29 colon) greater than 100 µM and a TGI (DLD-1 colon) greater than 100 µM. For the same compound, the TGI (SK-OV-3 ovarian) was greater than 100 µM, the TGI (KM20L2 colon) was greater than 100 µM and the TGI (NCI-H226 lung) was greater than 100 µM. For the same compound, the TGI (NCI-H460 lung) was greater than 100 µM, the TGI (UACC-62 melanoma) was greater than 100 µM and the TGI (CAKI-1 renal) was greater than 100 µM. The TGI (DMS 114 small cell lung) was greater than 100 µM, the TGI (SF-268 CNS) was greater than 100 µM and the TGI (OVCAR-8 ovarian) was greater than 100 µM. For the same compound, the TGI (NCI-H522 lung) was greater than 100 µM, the TGI (SW-620 colon) was greater than 100 µM and the TGI (M19-MEL melanoma) was greater than 100 µM. It also gave a TGI (UO-31 renal) greater than 100 µM, a TGI (UACC-257 melanoma) greater than 100 µM and a TGI (SN12C renal) greater than 100 µM. For the same compound, the TGI (SNB-75 CNS) was greater than 100 µM, the TGI (DMS 273 small cell lung) was greater than 100 µM and the TGI (CCRF-CEM leukemia) was greater than 100 µM. For the same compound, the TGI (SNB-19 CNS) was greater than 100 µM, the TGI (HL-60(TB) leukemia) was greater than 100 µM and the TGI (OVCAR-4 ovarian) was greater than 100 µM.

Compound O=C(CSc1nnc(Cc2ccccc2)o1)Nc1ccc(Cl)cc1Cl has a TGI (U251 CNS) greater than 100 µM, a TGI (HCT-15 colon) greater than 100 µM and a TGI (MOLT-4 leukemia) greater than 100 µM. The TGI (TK-10 renal) was greater than 100 µM, the TGI (SK-MEL-28 melanoma) was greater than 100 µM and the TGI (SK-MEL-2 melanoma) was greater than 100 µM. It also gave a TGI (LOX IMVI melanoma) greater than 100 µM, a TGI (786-0 renal) greater than 100 µM and a TGI (HOP-18 NSCLC) greater than 100 µM. It also gave a TGI (NCI-H23 lung) greater than 100 µM, a TGI (SNB-78 CNS) greater than 100 µM and a TGI (ACHN renal) greater than 100 µM. For the same compound, the TGI (OVCAR-5 ovarian) was greater than 100 µM, the TGI (A549 NSCLC) was greater than 100 µM and the TGI (OVCAR-3 ovarian) was greater than 100 µM. It also gave a TGI (SF-295 CNS) greater than 100 µM, a TGI (RPMI-8226 leukemia) greater than 100 µM and a TGI (LXFL 529 NSCLC) greater than 100 µM. The TGI (KM12 colon) was greater than 100 µM, the TGI (M14 melanoma) was greater than 100 µM and the TGI (K-562 leukemia) was greater than 100 µM. For the same compound, the TGI (RXF 393 renal) was greater than 100 µM, the TGI (MALME-3M melanoma) was greater than 100 µM and the TGI (HCC-2998 colon) was greater than 100 µM. It also gave a TGI (A498 renal) greater than 100 µM, a TGI (HOP-62 NSCLC) greater than 100 µM and a TGI (SK-MEL-5 melanoma) greater than 100 µM. For the same compound, the TGI (COLO 205 colon) was greater than 100 µM, the TGI (IGROV1 ovarian) was greater than 100 µM and the TGI (HCT-116 colon) was greater than 100 µM. For the same compound, the TGI (SF-539 CNS) was greater than 100 µM, the TGI (HT29 colon) was greater than 100 µM and the TGI (DLD-1 colon) was greater than 100 µM. For the same compound, the TGI (SK-OV-3 ovarian) was greater than 100 µM, the TGI (KM20L2 colon) was greater than 100 µM and the TGI (NCI-H226 lung) was greater than 100 µM. For the same compound, the TGI (NCI-H460 lung) was greater than 100 µM, the TGI (UACC-62 melanoma) was greater than 100 µM and the TGI (CAKI-1 renal) was greater than 100 µM. It also gave a TGI (DMS 114 small cell lung) greater than 100 µM, a TGI (SF-268 CNS) greater than 100 µM and a TGI (OVCAR-8 ovarian) greater than 100 µM. For the same compound, the TGI (NCI-H522 lung) was greater than 100 µM, the TGI (SW-620 colon) was greater than 100 µM and the TGI (M19-MEL melanoma) was greater than 100 µM. It also gave a TGI (UO-31 renal) greater than 100 µM, a TGI (UACC-257 melanoma) greater than 100 µM and a TGI (SN12C renal) greater than 100 µM. The TGI (SNB-75 CNS) was greater than 100 µM, the TGI (DMS 273 small cell lung) was greater than 100 µM and the TGI (CCRF-CEM leukemia) was greater than 100 µM. The TGI (SNB-19 CNS) was greater than 100 µM, the TGI (HL-60(TB) leukemia) was greater than 100 µM and the TGI (OVCAR-4 ovarian) was greater than 100 µM.
